For the test, the system named is Mycobacterium tuberculosis variant bovis. In words: Antibacterial activity against Mycobacterium bovis BCG ATCC 35734 assessed as bacterial growth inhibition measured after 3 weeks by resazurin dye based assay. Conditions: BCG ATCC 35734, 504 h. The format is functional. Background: The colour change of resazurin is a common sign of viable cells or microbes.

By MIC99 is commonly meant an inhibitory concentration at the 99% level, which refers to growth in some studies and to a panel of isolates in others.

For the molecule `CCOC(=O)c1cc(Cl)c(O)c(Cl)c1`, the MIC99 was < 53 µM.

In the case of `NS(=O)(=O)c1cc(Cl)cc(Cl)c1`, the MIC99 is < 56 µM.

The values above are taken from ChEMBL document CHEMBL5620427, “Recent advances in Fragment-based strategies against tuberculosis” (Eur J Med Chem, 2023).
